Drawing on patent US8445510B2, “Fused bicyclic kinase inhibitors” (OSI Pharmaceuticals, LLC, priority 2011, dated 2013), this text covers IC50 for 21 compounds.

A value given as a limit tells only on which side of the number the result lay.

In assay [1] the test system is Karpas-299 cells. Put plainly: Karpas-299 cell proliferation assay (CellTiter-Glo). In kind it is cell-based. Particulars: Homo sapiens, 72 h; Karpas-299 cell line (NPM-ALK); 3 days incubation; at least duplicate experiments; read-out: Prolif. IC50.
Assay [2] deals with T1, Aurora B (Homo sapiens, UniProt Q96GD4).
T1 construct: HT-29 cells grown in complete growth media
Put plainly: Aurora B cell mechanistic assay (HT-29), phospho-Histone H3 (Ser10) ELISA. It is filed as cell-based. The note with it: HT-29 cell line; inhibition of phospho-Histone H3 (Ser10); at least duplicate experiments (italicized if single experiment); read-out: Aurora B mech IC50. How it is done:
The cellular activity of the compounds of the present invention against Aurora B may be determined by the following procedure. HT-29 cells grown in complete growth media (McCoy's 5A, 10% FCS, 1% L-glutamine) were plated into wells of a 96 well tissue culture plate (Falcon 3072) at a cell density of 4×10^4 cells/0.09 ml media/well. Cells were subsequently incubated overnight in a 5% CO2 humidified 37° C. incubator. The following day 10 μl of a 10× stock of test compound serially diluted in media was added to the cells and incubated for 1 h at 37° C. at which time Calyculin A (Cell Signaling #9902) was added at a concentration of 100 nM and cells incubated for an additional 30 minutes in a 5% CO2 humidified 37° C. incubator. Media was then aspirated and cells lysed using a Triton based lysis buffer. Lysates were transferred to a pre-coated anti-Histone H3 antibody coated plate supplied by Cell Signaling in their PathScan phospho-Histone H3 (Ser10) ELISA kit (#7155). After an overnight incubation with lysate the ELISA was continued following the manufacturer's instructions. Signal was measured on a Wallac Victor plate reader at 450 nm. DMSO control treated cells served as 100% signal and an Aurora B kinase inhibitor served as 100% inhibition. The percent inhibition of phospho-Histone H3 (Ser10) was expressed as % control. IC50 values were calculated from the percent control data using a standard four-parameter model.
The IC50 values of exemplary compounds of the present invention determined in a Aurora B cell mechanistic assay using the HT-29 cell line according to the procedures described herein in at least duplicate experiments are abbreviated as follows and are shown in Table 4: A, IC50≦0.05 μM; B, 0.05 μM<IC50≦0.2 μM; C, 0.2 μM<IC50≦1 μM; D, IC50>1 μM; ND, not determined. If only data from single experiments are available, the abbreviations are italicized. The Example # of Table 4 corresponds to the compound example number as illustrated in the Examples section.

T1 sequence (Q96GD4 whole entry): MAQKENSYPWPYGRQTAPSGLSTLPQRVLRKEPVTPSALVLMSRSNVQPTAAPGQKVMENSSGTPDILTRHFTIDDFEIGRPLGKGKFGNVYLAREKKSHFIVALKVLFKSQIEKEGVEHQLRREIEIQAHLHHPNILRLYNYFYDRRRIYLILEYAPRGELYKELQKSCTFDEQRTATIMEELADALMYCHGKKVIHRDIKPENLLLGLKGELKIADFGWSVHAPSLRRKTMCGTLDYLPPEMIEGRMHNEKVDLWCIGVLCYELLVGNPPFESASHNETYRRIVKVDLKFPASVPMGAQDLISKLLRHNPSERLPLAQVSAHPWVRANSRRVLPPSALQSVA

With `COc1ccc(F)c(Cl)c1[C@@H](C)c1c[nH]c2ncc(-c3cnn([C@H]4CC[C@H](C(N)=O)CC4)c3C)cc12` [Example 18, trans-4-(4-{3-[(1S)-1-(2-chloro-3-fluoro-6-methoxyphenyl)ethyl]-1H-pyrrolo[2,3-b]pyridin-5-yl}-5-methyl-1H-pyrazol-1-yl)cyclohexanecarboxamide], the figures for the concentration for half-maximal inhibition (IC50) in assay [1] and in assay [2] were ≤ 50 nM and 200 to 1000 nM, respectively.

For `COc1ccc(F)c(Cl)c1[C@@H](C)c1c[nH]c2ncc(-c3cn([C@H]4CC[C@H](C(N)=O)CC4)nc3C)cc12` [Example 19, trans-4-(4-{3-[(1S)-1-(2-Chloro-3-fluoro-6-methoxyphenyl)ethyl]-1H-pyrrolo[2,3-b]pyridin-5-yl}-3-methyl-1H-pyrazol-1-yl)cyclohexanecarboxamide], the 50% inhibitory concentration (IC50) in assay [1] was ≤ 50 nM; in assay [2], 50 to 200 nM.

With `CNC(=O)[C@H]1CC[C@H](n2cc(-c3cnc4[nH]cc([C@H](C)c5c(OC)ccc(F)c5Cl)c4c3)c(C)n2)CC1` [Example 22, trans-4-(4-{3-[(1S)-1-(2-Chloro-3-fluoro-6-methoxyphenyl)ethyl]-1H-pyrrolo[2,3-b]pyridin-5-yl}-3-methyl-1H-pyrazol-1-yl)-N-methylcyclohexanecarboxamide], the results for the half-inhibitory concentration (IC50) in assay [1] and in assay [2] were ≤ 50 nM and 50 to 200 nM, respectively.

As for `COc1ccc(F)c(Cl)c1[C@@H](C)c1c[nH]c2ncc(-c3cnn([C@H]4CC[C@H](O)CC4)c3C)cc12` [Example 27, trans-4-(4-{3-[(1S)-1-(2-Chloro-3-fluoro-6-methoxyphenyl)ethyl]-1H-pyrrolo[2,3-b]pyridin-5-yl}-5-methyl-1H-pyrazol-1-yl)cyclohexanol], the concentration for half-maximal inhibition (IC50) in assay [1] is ≤ 50 nM; in assay [2], > 1000 nM.

With `COc1ccc(F)c(Cl)c1[C@@H](C)c1c[nH]c2ncc(-c3cnn([C@@H]4C[C@@H](O)[C@@H](O)C4)c3C)cc12` [Example 31, (1R,2S,4S)-4-(4-{3-[(1S)-1-(2-Chloro-3-fluoro-6-methoxyphenyl)ethyl]-1H-pyrrolo[2,3-b]pyridin-5-yl}-5-methyl-1H-pyrazol-1-yl)cyclopentane-1,2-diol], the half-inhibitory concentration (IC50) in assay [1] is ≤ 50 nM; in assay [2] it was > 1000 nM.

Take `COc1ccc(F)c(Cl)c1[C@@H](C)c1c[nH]c2ncc(-c3cn([C@@H]4C[C@@H](O)[C@@H](O)C4)nc3C)cc12` [Example 32, (1R,2S,4S)-4-(4-{3-[(1S)-1-(2-Chloro-3-fluoro-6-methoxyphenyl)ethyl]-1H-pyrrolo[2,3-b]pyridin-5-yl}-3-methyl-1H-pyrazol-1-yl)cyclopentane-1,2-diol]: the half-inhibitory concentration (IC50) is ≤ 50 nM in assay [1] and 50 to 200 nM in assay [2].

Turning to `COc1ccc(F)c(Cl)c1[C@@H](C)c1c[nH]c2ncc(-c3c(C)nn([C@@H]4C[C@@H](O)[C@@H](O)C4)c3C)cc12` [Example 33, (1R,2S,4S)-4-(4-{3-[(1S)-1-(2-Chloro-3-fluoro-6-methoxyphenyl)ethyl]-1H-pyrrolo[2,3-b]pyridin-5-yl}-3,5-dimethyl-1H-pyrazol-1-yl)cyclopentane-1,2-diol], the values for the IC50 in assay [1] and in assay [2] were ≤ 50 nM and > 1000 nM, respectively.

Consider `COc1ccc(F)c(Cl)c1[C@@H](C)c1c[nH]c2ncc(-c3cn(C[C@@H](O)CO)nc3C(F)(F)F)cc12` [Example 34, (2R)-3-[4-{3-[(1S)-1-(2-Chloro-3-fluoro-6-methoxyphenyl)ethyl]-1H-pyrrolo[2,3-b]pyridin-5-yl}-3-(trifluoromethyl)-1H-pyrazol-1-yl]propane-1,2-diol], for which the IC50 was 200 to 1000 nM in assay [1] and > 1000 nM in assay [2].

With `COc1ccc(F)c(Cl)c1[C@@H](C)c1c[nH]c2ncc(-c3cnn(C[C@@H](O)CO)c3C(F)(F)F)cc12` [Example 35, (2R)-3-[4-{3-[(1S)-1-(2-Chloro-3-fluoro-6-methoxyphenyl)ethyl]-1H-pyrrolo[2,3-b]pyridin-5-yl}-5-(trifluoromethyl)-1H-pyrazol-1-yl]propane-1,2-diol], the half-inhibitory concentration (IC50) is 200 to 1000 nM in assay [1] and > 1000 nM in assay [2].

Turning to `COc1ccc(F)c(Cl)c1[C@@H](C)c1c[nH]c2ncc(-c3cnn(C)c3N)cc12` [Example 38, 4-{3-[(1S)-1-(2-Chloro-3-fluoro-6-methoxyphenyl)ethyl]-1H-pyrrolo[2,3-b]pyridin-5-yl}-1-methyl-1H-pyrazol-5-amine], the values for the 50% inhibitory concentration (IC50) in assay [1] and in assay [2] were 50 to 200 nM and 200 to 1000 nM, respectively.

`COc1ccc(F)c(Cl)c1[C@@H](C)c1c[nH]c2ncc(-c3cn(C)nc3C(N)=O)cc12` [Example 39, 4-{3-[(1S)-1-(2-Chloro-3-fluoro-6-methoxyphenyl)ethyl]-1H-pyrrolo[2,3-b]pyridin-5-yl}-1-methyl-1H-pyrazole-3-carboxamide]: the values for the IC50 in assay [1] and in assay [2] were 200 to 1000 nM and > 1000 nM, respectively.

`COc1ccc(F)c(Cl)c1[C@@H](C)c1c[nH]c2ncc(-c3c(C)nn(C)c3C(N)=O)cc12` [Example 41, 4-{3-[(1S)-1-(2-Chloro-3-fluoro-6-methoxyphenyl)ethyl]-1H-pyrrolo[2,3-b]pyridin-5-yl}-1,3-dimethyl-1H-pyrazole-5-carboxamide]: the IC50 in assay [1] and in assay [2] was > 1000 nM throughout.

For `COc1ccc(F)c(Cl)c1[C@@H](C)c1c[nH]c2ncc(-c3cn(C)nc3CO)cc12` [Example 42, (4-{3-[(1S)-1-(2-Chloro-3-fluoro-6-methoxyphenyl)ethyl]-1H-pyrrolo[2,3-b]pyridin-5-yl}-1-methyl-1H-pyrazol-3-yl)methanol], the 50% inhibitory concentration (IC50) lay within 50 to 200 nM in assay [1] and 200 to 1000 nM in assay [2].

As to `COc1ccc(F)c(Cl)c1[C@@H](C)c1c[nH]c2ncc(-c3cnn(C)c3C(N)=O)cc12` [Example 43, 4-{3-[(1S)-1-(2-Chloro-3-fluoro-6-methoxyphenyl)ethyl]-1H-pyrrolo[2,3-b]pyridin-5-yl}-1-methyl-1H-pyrazole-5-carboxamide], the half-maximal inhibitory concentration (IC50) in assay [1] and in assay [2] was > 1000 nM each time.

On to `COc1ccc(F)c(Cl)c1[C@@H](C)c1c[nH]c2ncc(-c3cnn(C)c3CO)cc12` [Example 44, (4-{3-[(1S)-1-(2-Chloro-3-fluoro-6-methoxyphenyl)ethyl]-1H-pyrrolo[2,3-b]pyridin-5-yl}-1-methyl-1H-pyrazol-5-yl)methanol], for which the half-inhibitory concentration (IC50) in assay [1] was 50 to 200 nM; in assay [2], > 1000 nM.

Regarding `COc1ccc(F)c(Cl)c1[C@@H](C)c1c[nH]c2ncc(-c3c(C)nn(C)c3CO)cc12` [Example 45, (4-{3-[(1S)-1-(2-Chloro-3-fluoro-6-methoxyphenyl)ethyl]-1H-pyrrolo[2,3-b]pyridin-5-yl}-1,3-dimethyl-1H-pyrazol-5-yl)methanol], the IC50 was 50 to 200 nM in assay [1] and > 1000 nM in assay [2].

Regarding `COc1ccc(F)c(Cl)c1[C@@H](C)c1c[nH]c2ncc(-c3cn(C)nc3C#N)cc12` [Example 46, 4-{3-[(1S)-1-(2-Chloro-3-fluoro-6-methoxyphenyl)ethyl]-1H-pyrrolo[2,3-b]pyridin-5-yl}-1-methyl-1H-pyrazole-3-carbonitrile], the half-inhibitory concentration (IC50) in assay [1] was 200 to 1000 nM; in assay [2] it was > 1000 nM.

As for `CCc1nn([C@H]2CC[C@H](O)CC2)cc1-c1cnc2[nH]cc([C@H](C)c3c(OC)ccc(F)c3Cl)c2c1` [Example 47, trans-4-(4-{3-[(1S)-1-(2-Chloro-3-fluoro-6-methoxyphenyl)ethyl]-1H-pyrrolo[2,3-b]pyridin-5-yl}-3-ethyl-1H-pyrazol-1-yl)cyclohexanol], the IC50 in assay [1] is 50 to 200 nM; in assay [2], > 1000 nM.

Turning to `CCc1c(-c2cnc3[nH]cc([C@H](C)c4c(OC)ccc(F)c4Cl)c3c2)cnn1[C@H]1CC[C@H](O)CC1` [Example 48, trans-4-(4-{3-[(1S)-1-(2-Chloro-3-fluoro-6-methoxyphenyl)ethyl]-1H-pyrrolo[2,3-b]pyridin-5-yl}-5-ethyl-1H-pyrazol-1-yl)cyclohexanol], the IC50 in assay [1] is 50 to 200 nM; in assay [2] it was > 1000 nM.

Consider `COc1ccc(F)c(Cl)c1[C@@H](C)c1c[nH]c2ncc(-c3cnn([C@H]4CC[C@H](O)CC4)c3Cl)cc12` [Example 49, trans-4-(5-Chloro-4-{3-[(1S)-1-(2-chloro-3-fluoro-6-methoxyphenyl)ethyl]-1H-pyrrolo[2,3-b]pyridin-5-yl}-1H-pyrazol-1-yl)cyclohexanol], for which the figures for the 50% inhibitory concentration (IC50) in assay [1] and in assay [2] were 50 to 200 nM and > 1000 nM, respectively.

Consider `COc1ccc(F)c(Cl)c1[C@@H](C)c1c[nH]c2ncc(-c3cn(C)nc3CN)cc12` [Example 50, 1-(4-{3-[(1S)-1-(2-Chloro-3-fluoro-6-methoxyphenyl)ethyl]-1H-pyrrolo[2,3-b]pyridin-5-yl}-1-methyl-1H-pyrazol-3-yl)methanamine], for which the IC50 in assay [1] and in assay [2] was 200 to 1000 nM in each case.
